Source: patent US11344601B2, “Tumor microenvironment-related target TAK1 and application thereof in inhibition of tumor” (Shanghai Institutes for Biological Sciences, Chinese …, priority 2017, dated 2022)

Legend:
Assay type in all cases: cell-based, human
NF-κB complex = test: NF-κB activation in bleomycin-treated stromal cells (nuclear translocation, luciferase reporter)
Description: FIG. 22. The stromal cells pre-transduced with the NF-κB transcriptional luciferase reporter vector were treated with bleomycin and/or RAD001. The cells were collected on Day 7 and detected for the fluorescence signal intensity of the reporter vector.
FIG. 32. Detection of NF-kB transcriptional activity based on the reporter vector. Stromal cells were treated with bleomycin along with the PI3K small molecule inhibitor LY294002 (1 μM), Akt inhibitor MK-2206 (100 nM), mTOR inhibitor RAD001 (50 nM), p38 inhibitor SB203580 (10 μM) and TAK1 inhibitor 5Z-7 (500 nM), respectively, and cell lysates were used for determining luciferase activity.
The […] vector pBABE-puro-IκBα-mut (Super repressor) containing two phosphorylated mutant sites of IKK at S32A and S34A on the IκBα protein encoding sequence were used for transfection of lentivirus-packing cell line phoenix. Lentiviruses were subsequently used to infect PSC27 stromal cell line, whereas 1 μg/ml puromycin was used to screen positive clones. As another method, 5 μm of the small molecule inhibitor Bay11-7082 (purchased from Selleck) was used for NF-κB activity control. Stromal cells were subsequently exposed to several different forms of cytotoxicity, with the resulting phenotype recorded in time, and the relevant gene expression analyzed. The resulted conditioned culture medium produced from cells processed in this way was collected for various detection of epithelial cells.
Even so, is TAK1 activated indirectly by upstream DDR signaling associated with activation of a core transcription factor, NF-κB complex involved in the broad-spectrum expression of the SASP? The NF-κB complex was previously reported to be mediated by mono-ubiquitination of IκB kinase subunit γ (IKKγ) in cytoplasm. After isolating nucleus from cytoplasmic proteins using a kit, the inventor finds that TAK1 phosphorylation is associated with nuclear translocation of p50 and p65, the two main subunits of NF-κB complex (FIG. 4).

PSC27 cells = test: DNA damage response foci, colony formation, cell cycle arrest and SA-β-Gal in PSC27 cells
Description: Experimental Treatment In Vitro • 100 nM docetaxel (DTX), 100 nM paclitaxel (PTX), 200 nM vincristine (VCR), 50 μg/ml bleomycin (BLEO), 1 μM mitoxantrone (MIT), or 10 Gy ^137CS ionizating radiation (γ-radiation at 743 rad/min, RAD) was added to the culture medium when PSC27 cells grown to 80% (PSC27-Pre) to produce cell damage. After drug treatment for 6 hours, the cells were simply washed by PBS for 3 times and kept in the culture medium for 7 to 10 days, followed by subsequent experiments. […] Immunofluorescence and Histochemical Analysis • Mouse monoclonal antibody anti-phospho-Histone H2A.X (Ser139) (clone JBW301, Millipore) or mouse monoclonal antibody anti-Phosphor-53BP1 (Cat #sc-135748, Santa Cruz), and secondary antibody Alexa Fluor® 488 (or 594)-conjugated F(ab′)2 were added sequentially to slides on which cells were fixed. Nuclei were counterstained with 2 μg/ml of 4′,6-diamidino-2-phenylindole (DAPI). The most representative image was selected from the 3 observation fields for data analysis and result presentation. FV1000 laser scanning confocal microscopy (Olympus) was used to obtain cellular confocal fluorescence images to determine the extent of DNA damage. • Antibody anti-TAK1 used for histological IHC staining in clinical prostate, non-small cell lung cancer patients and breast cancer patients, was purchased from Proteintech, idib.

p38MAPK, JNK, ATM = test: Western blot of JNK, p38MAPK and ATM phosphorylation in damaged stromal cells; details: Day 7 after bleomycin and/or 5Z-7
Description: The nitrocellulose filter membrane was blocked at room temperature for 1 h in the blocking solution (TBST containing 5% skim milk powder (0.1% Tween-20 in TBS)), incubated overnight at 4° C. in a primary antibody solution, rinsed at TBST room temperature for 3 times, each for 2 min. The corresponding secondary antibody conjugated with HRP prepared with the blocking solution was added, the filter membrane was incubated at room temperature for 0.5 h. The filter membrane was rinsed with PBST at room temperature for 3 times, each for 2 min.

[1] = system: prostate cancer epithelial cell lines (BPH1, M12, PC3, DU145 and LNCaP); test: Chemotherapy resistance of cancer cells conferred by extracellular fluid of damaged PSC27 stromal cells; details: stromal cells treated with TAK1 inhibitor
Description: c. Experimental Treatment In Vitro • 100 nM docetaxel (DTX), 100 nM paclitaxel (PTX), 200 nM vincristine (VCR), 50 μg/ml bleomycin (BLEO), 1 μM mitoxantrone (MIT), or 10 Gy ^137CS ionizating radiation (γ-radiation at 743 rad/min, RAD) was added to the culture medium when PSC27 cells grown to 80% (PSC27-Pre) to produce cell damage. After drug treatment for 6 hours, the cells were simply washed by PBS for 3 times and kept in the culture medium for 7 to 10 days, followed by subsequent experiments. 2. Plasmid Preparation and Lentiviral Transfection • Full-length human IKKα and Flag were cloned as a fusion protein between the restriction sites BamHI and XbaI in the expression vector pCR3.1. Full-length human mTOR and GST were cloned as a fusion protein between a pair of NotI restriction sites in the expression vector pcDNA3. Packaging cell line 293FT was used for cell transfection and lentivirus production. […] FV1000 laser scanning confocal microscopy (Olympus) was used to obtain cellular confocal fluorescence images to determine the extent of DNA damage. • Antibody anti-TAK1 used for histological IHC staining in clinical prostate, non-small cell lung cancer patients and breast cancer patients, was purchased from Proteintech, idib. […] Quantitative PCR for Measuring Gene Expression […]

Structure (SMILES): COc1cc(O)c2c(c1)/C=C/C[C@H](O)[C@H](O)C(=O)/C=C\C[C@H](C)OC2=O [5Z-7, 5z-7-oxozeaenol]
- NF-κB transcriptional activity (reporter vector) (NF-κB complex; bleomycin plus inhibitor, luciferase reporter): significantly reduced
- phosphorylation of TAK1 and nuclear translocation of p50/p65 (NF-κB complex; bleomycin-treated stromal cells, cytosolic and nuclear proteins): significantly inhibited
- inhibitory effect on NF-κB activation and IL-8 compared with the other inhibitors (NF-κB complex; vs LY294002, MK-2206, SB203580): stronger inhibitory effect
- colony forming ability of PSC27 cells (PSC27 cells; bleomycin and/or 5Z-7, Day 7): not associated with the inhibition of TAK1 activity
- single-cell level of DDR foci (PSC27 cells; bleomycin-treated cells, presence or absence of inhibitor): did not change significantly
- phosphorylation of JNK and p38MAPK (p38MAPK, JNK, ATM): decreased significantly
- phosphorylation status of ATM stimulated by DNA damage (p38MAPK, JNK, ATM): does not depend on whether TAK1 activity is inhibited
- resistance of cancer cells to docetaxel conferred by stromal cell extracellular fluid ([1]; docetaxel): attenuate the acquired resistance
- resistance of cancer cells to mitoxantrone conferred by stromal cell extracellular fluid ([1]; mitoxantrone at IC50 concentration): significantly weakened
